Data published in patent publication US6087355A, “Cephalosporin antibiotics” (Microcide Pharmaceuticals, Inc., priority 1996, dated 2000).
Converted amounts (≈) assume the structure as drawn.

Key:
MRSA strains = conditions: in words, reported in background; cited from earlier work
[1] = system: S. aureus strain ATCC 13709 (methicillin-susceptible); test: Murine model for lethal bacteremic peritonitis; assay type: in vivo, female Swiss-Webster mice; conditions: Staphylococcus aureus, ATCC13709, SC, 72 h
Summary of the method: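 Female Swiss-Webster mice were challenged IP with an LD100 inoculum in 7% hog gastric mucin, then given test drug subcutaneously in twofold increments (0.01–512 mg/kg) as two equal doses at challenge and 2 h later, 10 mice per group. Survival was scored at 72 h; PD50 (total mg/kg) was derived by probit.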

[2] = system: S. aureus Col(Meth^R)(lac^-); test: In vitro MIC, agar dilution; assay type: cell-based; conditions: Staphylococcus aureus, read-out: minimum inhibitory concentration (MIC)
Summary of the method: (§1)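 Two-fold dilutions (128 to ≤0.25 μg/mL, in duplicate) were poured into Mueller-Hinton agar. Log-phase broth cultures were spot-inoculated at about 10^4 cfu per spot and incubated 35-36°C for 16-20 hours; the MIC was the lowest concentration inhibiting growth. Col is a high-level PBP2a producer; Col 8A is its isogenic PBP2a-lacking partner.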

[3] = system: S. aureus Col8A(Meth^S)(lac^-); test: In vitro MIC, agar dilution; assay type: cell-based; conditions: Staphylococcus aureus; S. aureus Col8A(Meth^S)(lac^-); read-out: minimum inhibitory concentration (MIC)
Summary of the method: as §1

In the case of `C[C@@H](O)[C@H]1C(=O)N2C(C(=O)O)=C(SCCN=CN)C[C@H]12` [Imipenem, imipenem, reference compound], the “activity against MRSA strains” value (MRSA strains) is listed as “active against a few MRSA strains”, the responders at 0.039 mg/kg ([1]; Dose 0.039 mg/kg, read-out: Survivors) is listed as 30% and the responders at 0.078 mg/kg ([1]; Dose 0.078 mg/kg, read-out: Survivors) is listed as 60%. The responders at 0.156 mg/kg ([1]; Dose 0.156 mg/kg, read-out: Survivors) was 100%, the responders at 0.3125 mg/kg ([1]; Dose 0.3125 mg/kg, read-out: Survivors) was 100% and the responders at 0.625 mg/kg ([1]; Dose 0.625 mg/kg, read-out: Survivors) was 100%. The ED50 ([1]; two equal doses, IP challenge, read-out: ED50) was 0.06 mg/kg, the MIC [2] was 32 µg/mL (≈ 107 µM) and the MIC [3] was ≤ 0.25 µg/mL.
